SMILES strings stand for the structures. Where a name gives a salt, the structure may show the parent alone. Some results are limits rather than exact numbers.

The IC50 is the concentration that gives 50% inhibition.

T1 sequence (Q16539 whole entry): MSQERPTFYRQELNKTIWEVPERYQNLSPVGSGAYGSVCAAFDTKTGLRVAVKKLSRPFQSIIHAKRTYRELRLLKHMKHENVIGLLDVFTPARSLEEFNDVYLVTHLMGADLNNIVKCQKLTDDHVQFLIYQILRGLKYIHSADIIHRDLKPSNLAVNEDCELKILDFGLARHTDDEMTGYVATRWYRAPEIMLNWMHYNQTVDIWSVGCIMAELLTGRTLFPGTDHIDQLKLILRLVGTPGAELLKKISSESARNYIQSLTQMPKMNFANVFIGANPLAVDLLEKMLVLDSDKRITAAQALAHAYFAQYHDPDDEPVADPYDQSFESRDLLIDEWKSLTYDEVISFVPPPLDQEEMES

The test has as its target T1, human p38 kinase alpha (Homo sapiens, UniProt Q16539).
T1 construct: The coding region of the human p38a cDNA was obtained by PCR-amplification from RNA isolated from the human monocyte cell line THP.1; made in house; host or cells: E. coli DH10B
In words: p38 kinase in vitro assay (PHAS-I / 32P-ATP format or EGFRP / 33P-ATP format). Format: biochemical. As to conditions: activated human p38 kinase alpha, 50 μM unlabeled ATP; two assay formats, table does not say which. As to the method: The ability of compounds to inhibit human p38 kinase alpha was evaluated using two in vitro assay methods. In the first method, activated human p38 kinase alpha phosphorylates a biotinylated substrate, PHAS-I (phosphorylated heat and acid stable protein-insulin inducible), in the presence of gamma ^32P-ATP (^32P-ATP). PHAS-I was biotinylated prior to the assay and provides a means of capturing the substrate, which is phosphorylated during the assay. p38 Kinase was activated by MKK6. Compounds were tested in 10 fold serial dilutions over the range of 100 μM to 0.001 μM using 1% DMSO. Each concentration of inhibitor was tested in triplicate.
All reactions were carried out in 96 well polypropylene plates. Each reaction well contained 25 mM HEPES pH 7.5, 10 mM magnesium acetate and 50 μM unlabeled ATP. Activation of p38 was required to achieve sufficient signal in the assay. Biotinylated PHAS-1 was used at 1-2 μg per 50 μl reaction volume, with a final concentration of 1.5 μM. Activated human p38 kinase alpha was used at 1 μg per 50 μl reaction volume representing a final concentration of 0.3 μM. Gamma ^32P-ATP was used to follow the phosphorylation of PHAS-1. ^32P-ATP has a specific activity of 3000 Ci/mmol and was used at 1.2 μCi per 50 μl reaction volume. The reaction proceeded either for one hour or overnight at 30° C.
Following incubation, 20 μl of reaction mixture was transferred to a high capacity streptavidin coated filter plate (SAM-streptavidin-matrix, Promega) prewetted with phosphate buffered saline. The transferred reaction mix was allowed to contact the streptavidin membrane of the Promega plate for 1-2 minutes. Following capture of biotinylated PHAS-1 with ^32P incorporated, each well was washed to remove unincorporated ^32P-ATP three times with 2M NaCl, three washes of 2M NaCl with 1% phosphoric, three washes of distilled water and finally a single wash of 95% ethanol. Filter plates were air-dried and 20 μl of scintillant was added. The plates were sealed and counted.
A second assay format was also employed that is based on p38 kinase alpha induced phosphorylation of EGFRP (epidermal growth factor receptor peptide, a 21 mer) in the presence ^33P-ATP. Compounds were tested in 10 fold serial dilutions over the range of 100 μM to 0.001 μM in 1% DMSO. Each concentration of inhibitor was tested in triplicate. Compounds were evaluated in 50 μl reaction volumes in the presence of 25 mM Hepes pH 7.5, 10 mM magnesium acetate, 4% glycerol, 0.4% bovine serum albumin, 0.4 mM DTT, 50 μM unlabeled ATP, 25 μg EGFRP (200 μM), and 0.05 μCi ^33P-ATP. Reactions were initiated by addition of 0.09 μg of activated, purified human GST-p38 kinase alpha. Activation was carried out using GST-MKK6 (5:1, p38:MKK6) for one hour at 30° C. in the presence of 50 μM ATP. Following incubation for 60 minutes at room temperature, the reaction was stopped by addition of 150 μl of AG 1×8 resin in 900 mM sodium formate buffer, pH 3.0 (1 volume resin to 2 volumes buffer). The mixture was mixed three times with pipetting and the resin was allowed to settle. A total of 50 μl of clarified solution head volume was transferred from the reaction wells to Microlite-2 plates. 150 μl of Microscint 40 was then added to each well of the Microlite plate, and the plate was sealed, mixed, and counted.
The above protocol assays were used to determine the IC50 values for compounds in Examples 1-71 above.
With `Cc1ccc(C(=O)O)cc1-c1nnc2n1CC(CCc1ccc(F)cc1F)CC2` (racemic) [Example 19, racemic 3-{6-[2-(2,4-difluorophenyl)ethyl]-5,6,7,8-tetrahydro[1,2,4]triazolo[4,3-a]pyridin-3-yl}-4-methylbenzoic acid], the IC50 came out at 7550 nM.
The molecule `CC(C)c1nnc2cc(Cl)c(Sc3ccc(F)cc3F)c(Br)n12` [Example 39, 5-bromo-7-chloro-6-[(2,4-difluorophenyl)thio]-3-isopropyl[1,2,4]triazolo[4,3-a]pyridine] displayed an IC50 of 6080 nM.
Next, `CC(C)c1nnc2ccc(C(=O)Nc3ccc(F)cc3F)cn12` [Example 11, N-(2,4-difluorophenyl)-3-isopropyl[1,2,4]triazolo[4,3-a]pyridine-6-carboxamide]: more than 100000 nM; `CC(C)(C)c1nnc2ccc(C(O)c3ccc(F)cc3F)cn12` (stereo not shown) [15 (step 1), (3-tert-butyl[1,2,4]triazolo[4,3-a]pyridin-6-yl)(2,4-difluorophenyl)methanol]: 319 nM.
For `Cc1cc(C(O)CO)ccc1-c1nnc2ccc(Sc3ccc(F)cc3F)cn12` (stereo not shown) [45 (step 4), 1-(4-{6-[(2,4-difluorophenyl)thio][1,2,4]triazolo[4,3-a]pyridin-3-yl}-3-methylphenyl)ethane-1,2-diol hydrochloride] the value was 28.3 nM; for `NC(=O)c1ccc(-c2nnc3ccc(Cc4ccc(F)cc4F)cn23)cc1` [Example 27, 4-[6-(2,4-difluorobenzyl)[1,2,4]triazolo[4,3-a]pyridin-3-yl]benzamide], 3020 nM; for `CC(C)c1nnc2ccc(S(=O)(=O)c3ccc(F)cc3F)cn12` [Example 61, 6-[(2,4-difluorophenyl)sulfonyl]-3-isopropyl[1,2,4]triazolo[4,3-a]pyridine], more than 100000 nM.
For `C=Cc1ccc2nnc(C(C)C)n2c1` [Example 56, 3-isopropyl-6-vinyl[1,2,4]triazolo[4,3-a]pyridine] the value was more than 100000 nM; for `O=C(O)c1ccc(-c2nnc3ccc(Cc4ccc(F)cc4F)cn23)cc1` [Example 59, 4-[6-(2,4-difluorobenzyl)[1,2,4]triazolo[4,3-a]pyridin-3-yl]benzoic acid], more than 100000 nM.
`OCC(O)c1ccc(-c2nnc3ccc(Sc4ccc(F)cc4F)cn23)cc1` (racemic) [Example 31, racemic-1-(4-{6-[(2,4-difluorophenyl)thio][1,2,4]triazolo[4,3-a]pyridin-3-yl}phenyl)ethane-1,2-diol hydrochloride] had an IC50 of 5.3 nM.
Molecule `Cc1ccc(C(=O)NCCO)cc1-c1nnc2ccc(Sc3ccc(F)cc3F)cn12` [Example 43, 3-{6-[(2,4-difluorophenyl)thio][1,2,4]triazolo[4,3-a]pyridin-3-yl}-N-(2-hydroxyethyl)-4-methylbenzamide] came in with an IC50 of 20.5 nM.
In turn, `CC(C)c1nnc2ccc([S+]([O-])c3ccc(F)cc3F)cn12` (stereo not shown) [Example 60, 6-[(2,4-difluorophenyl)sulfinyl]-3-isopropyl[1,2,4]triazolo[4,3-a]pyridine] gave an IC50 of 9680 nM.
For `NC(=O)c1ccc(-c2nnc3ccc(Sc4ccc(F)cc4F)cn23)cc1` [Example 23, 4-{6-[(2,4-difluorophenyl)thio][1,2,4]triazolo[4,3-a]pyridin-3-yl}benzamide] the value was 201 nM; for `CC(C)c1nnc2ccc(Sc3ccc(F)cc3C(F)(F)F)cn12` [Example 53, 6-{[4-fluoro-2-(trifluoromethyl)phenyl]thio}-3-isopropyl[1,2,4]triazolo[4,3-a]pyridine hydrochloride], 50500 nM; for `CC(C)c1nnc2ccc(C(=O)Cc3ccc(F)cc3F)cn12` [Example 5, 2-(2,4-difluorophenyl)-1-(3-isopropyl[1,2,4]triazolo[4,3-a]pyridin-6-yl)ethanone], 7370 nM.
For `CC(C)c1nnc2ccc(Cc3ccc(Cl)nc3)cn12` [Example 9, 6-[(6-chloropyridin-3-yl)methyl]-3-isopropyl[1,2,4]triazolo[4,3-a]pyridine] the value was 53300 nM; for `C=CCC(C)(C)c1nnc2ccc(Sc3ccc(F)cc3F)cn12` [33 (step 2), 6-[(2,4-difluorophenyl)thio]-3-(1,1-dimethylbut-3-enyl)[1,2,4]triazolo[4,3-a]pyridine hydrochloride], 16.3 nM.
Next, `CC(C)C(=O)c1ccc2nnc(C(C)C)n2c1` [Example 71, 1-(3-isopropyl[1,2,4]triazolo[4,3-a]pyridin-6-yl)-2-methylpropan-1-one]: 99100 nM; `C=Cc1ccc(-c2nnc3ccc(Sc4ccc(F)cc4F)cn23)cc1` [Example 57, 6-[(2,4-difluorophenyl)thio]-3-(4-vinylphenyl)[1,2,4]triazolo[4,3-a]pyridine]: 181 nM; `CC(C)c1nnc2ccc(CCc3ccc(F)cc3F)cn12` [Example 2, 6-[2-(2,4-difluorophenyl)ethyl]-3-isopropyl[1,2,4]triazolo[4,3-a]pyridine]: 85 nM.
The molecule `CC(C)c1nnc2ccc(Sc3ccc(F)cc3F)c(Cl)n12` [Example 36, 5-chloro-6-[(2,4-difluorophenyl)thio]-3-isopropyl[1,2,4]triazolo[4,3-a]pyridine] gave an IC50 of 12.3 nM.
Take `CC(C)c1nnc2n1CC(Cc1ccc(F)cc1F)CC2` (stereo not shown) [Example 8, 6-(2,4-difluorobenzyl)-3-isopropyl-5,6,7,8-tetrahydro[1,2,4]triazolo[4,3-a]pyridine hydrochloride]: 5590 nM corresponded to half-maximal inhibition (IC50).
Next, `CC(C)(C)c1nnc2ccc(Cc3ccc(Cl)nc3)cn12` [Example 10, 3-tert-butyl-6-[(6-chloropyridin-3-yl)methyl][1,2,4]triazolo[4,3-a]pyridine]: 21600 nM; `O=C(CO)N1CCC(c2nnc3ccc(Sc4ccc(F)cc4F)cn23)CC1` [Example 44, 2-(4-{6-[(2,4-difluorophenyl)thio][1,2,4]triazolo[4,3-a]pyridin-3-yl}piperidin-1-yl)-2-oxoethanol hydrochloride]: 212 nM; `CC(C)(C)c1nnc2ccc(Sc3ccc(F)cc3F)cn12` [Example 48, 3-tert-butyl-6-[(2,4-difluorophenyl)thio][1,2,4]triazolo[4,3-a]pyridine]: 4.8 nM.
Next, `CNC(=O)c1ccc(-c2nnc3ccc(Sc4ccc(F)cc4F)cn23)cc1` [Example 24, 4-{6-[(2,4-difluorophenyl)thio][1,2,4]triazolo[4,3-a]pyridin-3-yl}-N-methylbenzamide]: 293 nM.
Next, `NC(=O)c1cccc(-c2nnc3ccc(Cc4ccc(F)cc4F)cn23)c1` [Example 28, 3-[6-(2,4-difluorobenzyl)[1,2,4]triazolo[4,3-a]pyridin-3-yl]benzamide]: 2980 nM.
`NC(=O)c1cccc(-c2nnc3ccc(C(=O)c4ccc(F)cc4F)cn23)c1` [Example 30, 3-[6-(2,4-difluorobenzoyl)[1,2,4]triazolo[4,3-a]pyridin-3-yl]benzamide] yielded an IC50 of more than 100000 nM.
On to `CC1(c2nnc3ccc(Sc4ccc(F)cc4F)cn23)CC1` [Example 46, 6-[(2,4-difluorophenyl)thio]-3-(1-methylcyclopropyl)[1,2,4]triazolo[4,3-a]pyridine hydrochloride], for which inhibition was half-maximal at 24.9 nM (IC50).
Next, `CC(C)(C)c1nnc2ccc(O)c(Cc3ccc(F)cc3F)n12` [Example 13, 3-tert-butyl-5-(2,4-difluorobenzyl)[1,2,4]triazolo[4,3-a]pyridin-6-ol]: more than 100000 nM; `CC(C)(C)c1nnc2ccc(OCc3ccc(F)cc3F)cn12` [Example 12, 3-tert-butyl-6-[(2,4-difluorobenzyl)oxy][1,2,4]triazolo[4,3-a]pyridine]: 19500 nM.

Source of the values: patent US20090209577A1, “Novel Triazolopyridine Compounds” (PFIZER INC., priority 2004, published 2009).
